Measured values reported in patent US6039963A, “Ceramide compounds, process for their preparation and use” (L'Oreal, priority 1995, dated 2000).

Key:
[1] = imperceptible water loss (IWL), evaporimeter (Servomed) on delipidized stratum corneum
Description: This measurement is made using an evaporimeter (Servomed) which quantitatively determines water evaporation, that is to say diffusional water transport, from a sample of previously delipidized stratum corneum which forms a stopper in a cylindrical capsule containing water, the entire assembly being placed in a chamber at controlled temperature and relative humidity.
Sensors allow the partial vapor pressure of water to be measured at two points located at different distances from the sample.
The partial vapor pressure of water is thus determined between the two points, and thus the rate of evaporation in accordance with Fick's law.
A comparative test was performed of the effects on the IWL of a solution containing the compound of Example 2 or 4 in tetrahydrofuran (THF) relative to a solution containing, in place of the compound according to the invention, either the pure isomer (D-ribo form) corresponding to the compound of Example 4 (compound A), or the compound of Example 1 of the European patent application published under the No. 0,500,437 filed by the Applicant (compound B).

[2] = coefficient of friction of the hair (smoothness), bleached hair, 1% in THF; settings: for coefficient of friction of the hair, R → T: root to tip; for coefficient of friction of the hair, T → R: tip to root
Experimental: (§1) A comparative test was performed on the effects on the smoothness of the hair of a solution containing 1% of the compound of Example 4 in tetrahydrofuran (THF), relative to a control consisting of THF, or to a solution containing, in place of the compound according to the invention, either the pure isomer (D-ribo form) corresponding to the compound of Example 4 (compound A) or the compound of Example 1 of the European patent application published under the No. 0,500,437 owned by the present assignee (compound B).
(§2) This test determines the coefficient of friction of the hair by measuring the force to apply to a control mass in order to make it slide at constant speed on two hairs stretched out in parallel. The measurement is made by sliding the mass from the root to the tip of the hairs (R→T) and vice versa (T→R).

[3] = coefficient of friction of the hair (smoothness), neutral hair, 1% in THF; settings: for coefficient of friction of the hair, R → T / coefficient of friction of the hair, T → R: neutral hair, 1% in THF; for coefficient of friction of the hair, R → T: root to tip; for coefficient of friction of the hair, T → R: tip to root
Experimental: as §1, §2

Row | Compound | I.W.L. 20 H (%) ([1]; 2% in THF) | I.W.L. 20 H (%) ([1]; 1% in THF) | coefficient of friction of the hair, R → T ([2]; non-rinsed) | coefficient of friction of the hair, T → R ([2]; non-rinsed) | coefficient of friction of the hair, R → T ([2]; rinsed) | coefficient of friction of the hair, T → R ([2]; rinsed) | coefficient of friction of the hair, R → T ([3]; non-rinsed) | coefficient of friction of the hair, T → R ([3]; non-rinsed) | coefficient of friction of the hair, R → T ([3]; rinsed) | coefficient of friction of the hair, T → R ([3]; rinsed) | I.W.L. 20 H (%) ([1]; 1.5% in THF) | coefficient of friction (result in words) ([3]; summary of Table 1, neutral and bleached hair)
1 | CCCCCCCCCCCCCCC(O)C(=O)NC(CO)C(O)C(O)CCCCCCCCCCCCCC (racemic) [Example 2, 2-N-hydroxyhexadecanoylaminooctadecane-1,3,4-triol(4 isomers)] | -31 ± 2 |  |  |  |  |  |  |  |  |  |  | 
2 | CCCCCCCCCCCCCCCC(=O)N[C@@H](CO)[C@H](O)[C@H](O)CCCCCCCCCCCCCC [Compound A, reference compound] |  | 0 ± 2 | 0.000 | 0.000 | 0.191 ± 0.004 | 0.264 ± 0.012 | 0.000 | 0.000 | 0.125 ± 0.004 | 0.214 ± 0.004 |  | 
3 | CCCCCCCCCCCCCCCC(=O)NC(CO)C(O)C(O)CCCCCCCCCCCCCC (stereo not drawn) [Example 4, 2-N-hexadecanoylaminooctadecane-1,3,4-triol (8 isomers)] |  | -9 ± 2 | 0.009 ± 0.006 | 0.147 ± 0.006 | 0.085 ± 0.002 | 0.155 ± 0.004 | 0.089 ± 0.003 | 0.143 ± 0.003 | 0.095 ± 0.004 | 0.147 ± 0.004 | -15 ± 2 | marked decrease in the coefficient of friction
